# Reference: patent publication US20040067991A1, “Tetrahydrobenzothiazole analogues as neuroprotective agents” (priority 2003, published 2004)
# “Also recorded” adds a separate entry of the source. Where a name gives a salt, the structure may show the parent alone. Read-outs that look alike come from different tables or passages of the source.
# Key:
# C57BL/6 mice given MPTP [1] = experiment: MPTP model: striatal dopamine, serotonin and metabolites by HPLC; format: in vivo, mouse; conditions: striatal tissue; for levels of dopamine, DOPAC, and HVA as compared to the MPTP-induced reduction (in words): 2 mg/kg; for 5-HIAA / 5-HT / DOPAC / Dopamine / HVA: compound 2 mg/kg + MPTP, mean±SE, 4-6 mice/group
# Protocol: (§1) The ability of PFTα (5) and compounds 5× (Z-1-117) and 13 (Z-1-143) to protect dopaminergic neurons against MPTP toxicity was tested. MPTP (20 mg/kg) was administered intraperitoneally to 2 month-old male C57BL/6 mice by four injections at two hour intervals to induce dopaminergic cell death.
# In a separate experiment, levels of striatal dopamine, dopamine metabolites, serotonin, and serotonin metabolites were measured using HPLC analysis. Specifically, mice were euthanatized, and striatal tissue samples were removed and levels of dopamine, DOPAC, HVA, 5-HT, 5-HIAA were quantified. […] There was no significant difference in levels of serotonin or serotonin metabolites.
# C57BL/6 mice given MPTP [2] = experiment: MPTP-induced Parkinson's disease model: rotarod behavioral tests; format: in vivo, mouse; conditions: 2 mg/kg i.p. 30 min before first and 30 min after last MPTP injection; day 7
# Protocol: as §1
# At seven days, behavioral tests were performed using the rotarod test equipment. The number of falls and running times were measured.
# rat hippocampal neurons = experiment: Neuronal survival assay in cultured hippocampal neurons treated with camptothecin or etoposide; format: cell-based; conditions: for neuroprotection of hippocampal neurons against etoposide (in words): added 1 h before etoposide 2.5 μM; for protection of primary hippocampal cells against death induced by camptothecin and etoposide (in words): camptothecin 5 μM, etoposide 2.5 μM; for protection of primary hippocampal cells against death induced by camptothecin and etoposide (in words) / neuronal survival: 24 h; for neuronal survival: pretreated with 100 nM of analogue, then camptothecin (5 μM)
# Protocol: 2-amino-4,5,6,7-tetrahydrobenzothiazole hydrogen and 1-(4-methylphenyl)-2-(4,5,6,7-tetrahydro-2-imino-3(2H)-benzothiazolyl)-ethanone hydrobromide and their analogues were assessed for their ability to protect rat hippocampal cells in culture from camptothecin ([…]).
# Dissociated hippocampal cell cultures were established from embryonic day 18 Sprague-Dawley rats (Harlan, Inc.) as described previously. […] 77:220-28. Cells were grown in polyethyleneimine-coated plastic dishes or 22 m^2 glass coverslips, and incubated in Neurobasal medium containing B27 supplements, 2 mM L-glutamine, 25 mg/ml gentamycin, 1 mM Hepes (Gibco BRL) and 0.001% gentamicin sulfate. All experiments were performed using 9-10 day-old cultures. Camptothecin and etoposide (Signia) were prepared as 500× stocks in DMSO. Neuron survival was quantified by established methods. […] Briefly, viable neurons in premarked fields (10× objective) were counted before experimental treatment and at specified time points thereafter. Neurons with intact neurites of uniform diameter and soma with a smooth round appearance were considered viable. In contrast neurons with fragmented neurites and vacuolated soma were considered non-viable.
# PC12 cells = experiment: Protection of PC12 cells against camptothecin-induced cell death (BCECF AM fluorescence); format: cell-based
# Protocol: The 2-amino-4,5,6,7-tetrahydrobenzothiazole hydrogen iodide, 1-(4-methylphenyl)-2-(4,5,6,7-tetrahydro-2-imino-3(2H)-benzothiazolyl)-ethanone hydrobromide, and analogues were tested for their ability to protect PC12 cells against the toxic agent, camptothecin. PC12 cells were cultured in RPMI1640 media containing 10% horse serum and 5% fetal calf serum (37° C., pH 7.4) until confluent. Thereafter, 2.2×10^4 cells per mL were added to each trough of a 96 well plate (approximately 6,270 cells per well 285 μL) and were left to grow for 12 h. The media then was removed and was replaced by media with and without the compounds to be tested, including precursor, PFTα, and numerous analogues (concentration 100-400 nM, prepared in DMSO to a final dilution of 0.4%, 8 wells per concentration). Following 6 h of incubation, camptothecin (40 μM) was added to 4 of each 8 wells, and the cells were incubated for a further 24 h. Cells then were gently washed twice with phosphate buffered saline (PBS: 0.1 M, 37° C., pH 7.4) and were incubated in PBS containing the live-cell indicator dye, 2′,7′-bis(2-carboxyethey)-5-6-carboxyfluorescein AM ester (BCECF AM: 5 μM) (Molecular Probes, CA), for 45 min in minimal light. This fluorescent dye was taken up and retained by live cells. Finally, the cells were washed twice in PBS and their fluorescence then was quantified (excitation: 490 nm, emission: 535 nm, Perkin Elmer HTS 7000).
# PC12 cell survival was also assessed. One hundred percent cell survival was determined from cells incubated in the absence of both any compound and camptothecin. […] Compound-induced toxicity was assessed by comparing cells treated with compound at various concentrations in the absence of camptothecin with cells incubated in the absence of both compound and camptothecin. […] Compound-induced cellular protection was assessed by comparing cells incubated with camptothecin with cells incubated with camptothecin in the presence of compound, in a concentration-dependent manner.
# [3] = test system: substantia nigra dopaminergic neurons; experiment: MPTP model: TH-immunostained cells in the substantia nigra; format: in vivo, mouse; conditions: 2 mg/kg, seven days after treatment, 4 mice/group
# Protocol: as §1
# In yet another experiment, the number of TH-immunostained cells in the substantia nigra was assessed in four animals seven days after treatment. Mice were euthanized and perfused by 4% paraformadehyde transcardially. Brain sections were cut and immunostained with an antibody against TH. PFT-A and compound 5× attenuated MPTP-induced loss of substantia nigra dopaniinergic neurons.
# [4] = test system: striatal tyrosine hydroxylase (TH); experiment: MPTP model: striatal tyrosine hydroxylase levels by Western blot densitometry; format: in vivo, mouse; conditions: 2 mg/kg, 7 days later, hydrobromide
# Protocol: as §1
# Levels of tyrosine hydroxylase (TH), the enzyme that catalyzes the rate-limiting step in dopamine synthesis, also were assessed in the striatum using Western blot analysis.
# [5] = test system: C57BL/6 mice, middle cerebral artery occlusion; experiment: Transient focal cerebral ischemia/reperfusion (middle cerebral artery occlusion) stroke model; format: in vivo, mouse
# Protocol: Surgery was performed in anesthetized (xylazine 5 mg/kg, chloral hydrate 350 mg/kg) mice (3 month old C57B1/6) in accordance with a protocol approved by the NIH Animal Care and Use Committee. The focal ischemia/reperfusion model has been described previously. See Bruce et al. (1996) Nat. Med. 2:788-94. This method involves occluding the middle cerebral artery for 1 h with a nylon thread, and then removing it to allow reperfusion. During the procedure, mice were maintained at 37° C. and blood gases, flow and pressure were monitored. At 24 h after ischemia, mice were anesthetized, decapitated, and their brains were cut into 2 mm coronal sections, which then were stained with triphenyltetrazolium for 30 min at 37° C. Images of the stained brains were captured by digital camera for quantitative analysis of infarct area and volume.
# The infarct volume for vehicle was 40 mm^3. When mice were treated with PFTα, infarct volume was 20 mm^3, a highly significant 50% decrease.
# [6] = compounds 100-400 nM, camptothecin 40 μM 24 h
# [7] = 6 h preincubation with compound, camptothecin 40 μM for 24 h; read-out: PD50; concentration of compounds required to induce 50% protection (PC50) of PC12 cells from camptothecin-induced cell-death
SMILES,"levels of dopamine, DOPAC, and HVA as compared to the MPTP-induced reduction (in words) (C57BL/6 mice given MPTP [1])",5-HIAA (C57BL/6 mice given MPTP [1]) [pg/mg tissue weight],5-HT (C57BL/6 mice given MPTP [1]) [pg/mg tissue weight],DOPAC (C57BL/6 mice given MPTP [1]) [pg/mg tissue weight],Dopamine (C57BL/6 mice given MPTP [1]) [pg/mg tissue weight],HVA (C57BL/6 mice given MPTP [1]) [pg/mg tissue weight],number of falls on rotarod (in words) (C57BL/6 mice given MPTP [2]),running time on rotarod (in words) (C57BL/6 mice given MPTP [2]),neuroprotection of hippocampal neurons against etoposide (in words) (rat hippocampal neurons),neuronal survival (rat hippocampal neurons) [%],protection of PC12 cells against camptothecin-induced death (in words) (PC12 cells; [6]),"MPTP-induced loss of substantia nigra dopaminergic neurons, TH-positive cells (in words) [3]",EC50 (PC12 cells; [7]) [µM],also measured
"Cc1ccc(C(=O)Cn2c3c(sc2=N)CCCC3)cc1 [Compound 5, 1-(4-methylphenyl)-2-(4,5,6,7-tetrahydro-2-imino-3(2H)-benzothiazolyl)-ethanone hydrobromide, reference compound]",statistically significant increase,245 ± 33,419 ± 20,170,3314,328 ± 35,statistically significant decease,statistically significant increase,had activity,62,protected,attenuated,–,"improved cell survival compared to vehicle controls after pretreatment (rat hippocampal neurons; 200 nM pretreatment 1 hour, camptothecin 5 μM or etoposide 2.5 μM): improved cell survival; protection of primary hippocampal cells against death induced by camptothecin and etoposide (in words) (rat hippocampal neurons; listed as PFTα, hydrobromide): protects; also recorded: potent activity; toxicity when administered alone to hippocampal cells (rat hippocampal neurons; concentrations up to 400 nM): neither PFTα (5) nor its precursor were toxic; neuronal survival of PC12 cells increased (PC12 cells; compared to PC12 cells treated with camptothecin in the absence of PFTα): up to 70%; EC50 (PC12 cells; read-out: PD50; concentration of compounds required to induce 50% protection (PC50) of PC12 cells from camptothecin-induced cell-death; 6 h preincubation with compound, camptothecin 40 μM for 24 h): 0.252 µM; MPTP-induced loss of striatal tyrosine hydroxylase (in words) ([4]; listed as PFT-a): reverse the MPTP reduction in TH levels; MPTP-induced loss of striatal tyrosine hydroxylase (in words) ([4]; listed as PFT-alpha): attenuate; brain entry after systemic administration (in words) ([5]; 2 mg/kg i.p.): entered and acted in the brain; infarct area at four different brain levels (in words) ([5]; 2 mg/kg i.p.): reduction in the infarct area; infarct volume ([5]; 2 mg/kg i.p. before 1 h MCA occlusion, 24 h after ischemia): 20 mm^3; decrease in infarct volume ([5]; 2 mg/kg i.p., versus vehicle (40 mm^3)): 50%"
"Br.Cc1ccc(C(=O)Cn2c3c(sc2=N)CC(C)CC3)cc1 (stereo not shown) [Compound 5×, 1-(4-methylphenyl)-2-(4,5,6,7-tertahydro-2-imino-6-methyl-3(2H)-benzothiazolyl)-ethanone hydrobromide]",statistically significant increase,246 ± 15,424 ± 12,102,1833,302 ± 20,statistically significant decease,statistically significant increase,activity comparable to PFTα,29,highly potent,attenuated,0.306,"neuroprotection of hippocampal neurons against camptothecin (in words) (rat hippocampal neurons; 100 nM, added 1 h before camptothecin 5 μM): could not protect neurons effectively; protection of primary hippocampal cells against death induced by camptothecin and etoposide (in words) (rat hippocampal neurons): highly potency; MPTP-induced loss of striatal tyrosine hydroxylase (in words) [4]: attenuate; also recorded: reverse the MPTP reduction in TH levels"
"Br.N=c1sc2c(n1CC(=O)c1ccccc1)CCCC2 [Compound 13, 1-phenyl-2-(4,5,6,7-tertahydro-2-imino-3(2H)-benzothiazolyl)-ethanone hydrobromide]",–,223 ± 45,429 ± 42,10 ± 10,440,91 ± 58,–,–,–,–,–,–,0.169,"protection of PC12 cells against camptothecin-induced death (in words) (PC12 cells; compounds 100-400 nM, camptothecin 40 μM 24 h; hydrobromide): highly potent; also recorded: highly active in PC12 cells only"
